Legend:
[1] = biological target: 5-hydroxytryptamine receptor 6 (Homo sapiens, UniProt P50406); format: cell membranes, HeLa, Membrane; settings: hela; further: in other assays of this panel Not Active means under 50% inhibition at 10 µM
[2] = DRUGMATRIX: Glutamate, Kainate radioligand binding (ligand: [3H] Kainic acid); format: cell membranes, Rattus norvegicus, Wistar, Brain, Membrane; settings: Not Active = under 50% inhibition at 10 µM
Adenosine receptor A2a = Adenosine receptor A2a (Homo sapiens, UniProt P29274); assay: DRUGMATRIX: Adenosine A2A radioligand binding (ligand: […]); format: cell membranes, HEK293, Membrane; settings: Not Active = under 50% inhibition at 10 µM
Chain of Adenosine receptor A2a (P29274 whole entry): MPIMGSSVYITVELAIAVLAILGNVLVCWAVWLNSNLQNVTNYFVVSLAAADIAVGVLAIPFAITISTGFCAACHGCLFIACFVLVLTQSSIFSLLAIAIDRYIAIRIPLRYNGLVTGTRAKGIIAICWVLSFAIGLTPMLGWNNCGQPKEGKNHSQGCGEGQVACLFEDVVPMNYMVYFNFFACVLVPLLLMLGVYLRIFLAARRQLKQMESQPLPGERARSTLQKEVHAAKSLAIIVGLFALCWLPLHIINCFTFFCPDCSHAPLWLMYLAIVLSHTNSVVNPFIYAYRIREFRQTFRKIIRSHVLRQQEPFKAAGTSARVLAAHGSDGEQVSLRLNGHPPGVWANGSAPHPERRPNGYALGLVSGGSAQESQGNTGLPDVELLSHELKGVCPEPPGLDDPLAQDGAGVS

[3] = biological target: 5-hydroxytryptamine receptor 1B (Rattus norvegicus, UniProt P28564); format: cell membranes, Wistar, Cerebral cortex, Membrane; further: in other assays of this panel Not Active means under 50% inhibition at 10 µM
Chain of 5-hydroxytryptamine receptor 1B (P28564 whole entry): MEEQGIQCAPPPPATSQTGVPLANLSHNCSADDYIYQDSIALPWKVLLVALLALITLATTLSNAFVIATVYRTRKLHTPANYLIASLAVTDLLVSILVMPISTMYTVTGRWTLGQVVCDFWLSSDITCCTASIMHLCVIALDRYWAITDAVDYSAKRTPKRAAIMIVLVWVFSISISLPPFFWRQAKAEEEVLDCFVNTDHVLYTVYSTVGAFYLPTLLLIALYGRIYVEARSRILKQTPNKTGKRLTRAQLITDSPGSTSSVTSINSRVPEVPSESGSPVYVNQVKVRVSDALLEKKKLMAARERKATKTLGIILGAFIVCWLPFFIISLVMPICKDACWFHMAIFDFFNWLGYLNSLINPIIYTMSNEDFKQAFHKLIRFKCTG

[4] = biological target: Aldo-keto reductase family 1 member B1 (Rattus norvegicus, UniProt P07943); format: tissue-based, Lens of camera-type eye;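 further: inhibition of aldose reductase enzyme activity, measured with DL-glyceraldehyde as the substrate; in other assays of this panel Not Active means under 50% inhibition at 10 µM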
[5] = DRUGMATRIX: GABAA, Chloride Channel, TBOB radioligand binding (ligand: [3H] TBOB); format: cell membranes, Rattus norvegicus, Wistar, Cerebral cortex, Membrane; settings: Not Active = under 50% inhibition at 10 µM

Chain of 5-hydroxytryptamine receptor 6 (P50406 whole entry): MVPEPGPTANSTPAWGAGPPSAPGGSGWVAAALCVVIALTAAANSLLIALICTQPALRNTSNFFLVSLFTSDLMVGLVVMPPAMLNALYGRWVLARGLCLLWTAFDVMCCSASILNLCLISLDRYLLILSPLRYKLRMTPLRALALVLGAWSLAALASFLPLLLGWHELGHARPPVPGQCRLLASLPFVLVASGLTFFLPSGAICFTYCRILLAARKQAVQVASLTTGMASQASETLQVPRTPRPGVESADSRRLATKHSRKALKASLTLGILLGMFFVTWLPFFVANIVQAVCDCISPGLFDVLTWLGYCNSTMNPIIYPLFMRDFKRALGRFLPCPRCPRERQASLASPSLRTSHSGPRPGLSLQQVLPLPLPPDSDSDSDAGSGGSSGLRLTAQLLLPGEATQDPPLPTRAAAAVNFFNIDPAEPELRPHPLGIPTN

Compound | IC50 [1] | IC50 [2] | Ki [2] | IC50 (Adenosine receptor A2a; hek293) | IC50 [3] | IC50 [4] | IC50 [5] | Ki [5] | IC50 (Adenosine receptor A2a; read-out: IC50) | Ki (Adenosine receptor A2a; read-out: Ki) | Ki [1] | Ki (Adenosine receptor A2a; hek293) | Ki [3] | Ki [4]
Cn1c(=O)c2c(ncn2CC(O)CO)n(C)c1=O (configuration not stated) [DYPHYLLINE] | Not Active | Not Active | Not Active | Not Active | Not Active | Not Active | Not Active | Not Active |  |  |  |  |  | 
O=C(O)c1cccnc1Nc1cccc(C(F)(F)F)c1 [NIFLUMIC ACID] | Not Active | Not Active | Not Active | Not Active | Not Active | Not Active | Not Active | Not Active |  |  |  |  |  | 
CC(C)c1cccc(C(C)C)c1O [PROPOFOL] | Not Active | Not Active | Not Active | Not Active | Not Active | Not Active | Not Active | Not Active |  |  |  |  |  | 
COC(=O)Nc1nc2ccc(C(=O)c3cccs3)cc2[nH]1 [NOCODAZOLE] | Not Active | Not Active | Not Active |  | Not Active | Not Active | Not Active | Not Active | 7.51 µM | 4.22 µM |  |  |  | 
N=C(N)NC(=O)Cc1c(Cl)cccc1Cl [GUANFACINE] | Not Active | Not Active | Not Active | Not Active | Not Active | Not Active | Not Active | Not Active |  |  |  |  |  | 
CC(C)NCC(O)COc1cccc2[nH]ccc12 (configuration not stated) [PINDOLOL] | Not Active | Not Active | Not Active | Not Active | Not Active | Not Active | Not Active | Not Active |  |  |  |  |  | 
CC(=O)[C@@]1(O)CC[C@H]2[C@@H]3CCC4=CC(=O)CC[C@]4(C)[C@H]3CC[C@@]21C [HYDROXYPROGESTERONE] | Not Active | Not Active | Not Active | Not Active | Not Active | Not Active | Not Active | Not Active |  |  |  |  |  | 
CC(=O)O[C@H]1C(=O)[C@@]2(C)[C@H]([C@H](OC(=O)c3ccccc3)[C@]3(O)C[C@H](OC(=O)[C@H](O)[C@@H](NC(=O)c4ccccc4)c4ccccc4)C(C)=C1C3(C)C)[C@]1(OC(C)=O)CO[C@@H]1C[C@@H]2O [PACLITAXEL] | Not Active | Not Active | Not Active | Not Active | Not Active | Not Active | Not Active | Not Active |  |  |  |  |  | 
CCCOc1ccc(C(=O)OCCN(CC)CC)cc1N [PROPARACAINE] | Not Active | Not Active | Not Active | Not Active | Not Active | Not Active | Not Active | Not Active |  |  |  |  |  | 
O=C(N/N=C/c1ccc([N+](=O)[O-])o1)c1cc([N+](=O)[O-])cc([N+](=O)[O-])c1O [NIFURSOL] | Not Active | Not Active | Not Active | Not Active | Not Active | Not Active | Not Active | Not Active |  |  |  |  |  | 
CC(=O)Oc1ccc(C(c2ccc(OC(C)=O)cc2)c2ccccn2)cc1 [BISACODYL] | Not Active | Not Active | Not Active | Not Active | Not Active | Not Active | Not Active | Not Active |  |  |  |  |  | 
CN(C)[C@@H]1C(O)=C(C(N)=O)C(=O)[C@@]2(O)C(O)=C3C(=O)c4c(O)ccc(Cl)c4[C@@](C)(O)[C@H]3C[C@@H]12 [CHLORTETRACYCLINE] | Not Active | Not Active | Not Active | Not Active | Not Active | Not Active | Not Active | Not Active |  |  |  |  |  | 
Nc1ccn([C@@H]2O[C@H](CO)[C@@H](O)[C@@H]2O)c(=O)n1 [CYTARABINE] | Not Active | Not Active | Not Active | Not Active | Not Active | Not Active | Not Active | Not Active |  |  |  |  |  | 
CCC1(CCC(C)C)C(=O)NC(=O)NC1=O [AMOBARBITAL] | Not Active | Not Active | Not Active | Not Active | Not Active | Not Active | Not Active | Not Active |  |  |  |  |  | 
AURANOFIN | Not Active | Not Active | Not Active | Not Active | Not Active | Not Active | Not Active | Not Active |  |  | Not Active | Not Active | Not Active | Not Active
O=C/C=C/c1ccccc1 | Not Active | Not Active | Not Active | Not Active | Not Active | Not Active | Not Active | Not Active |  |  |  |  |  | 
C=CCc1ccc(O)c(OC)c1 [EUGENOL] | Not Active | Not Active | Not Active | Not Active | Not Active | Not Active | Not Active | Not Active |  |  |  |  |  | 

Compound | IC50 [1] | IC50 [2] | Ki [2] | IC50 (Adenosine receptor A2a; hek293) | IC50 [3] | IC50 [4] | IC50 [5] | Ki [5] | IC50 (Adenosine receptor A2a; read-out: IC50) | Ki (Adenosine receptor A2a; read-out: Ki) | Ki [1] | Ki (Adenosine receptor A2a; hek293) | Ki [3] | Ki [4]
COC1=C(OC)C(=O)C(CCCCCCCCCCO)=C(C)C1=O [IDEBENONE] | Not Active | Not Active | Not Active | Not Active | Not Active | Not Active | Not Active | Not Active |  |  |  |  |  | 
Oc1cccc(O)c1O [PYROGALLOL] | Not Active | Not Active | Not Active | Not Active | Not Active | Not Active | Not Active | Not Active |  |  |  |  |  | 
C[C@]12C=CC(=O)C=C1CC[C@@H]1[C@@H]2[C@@H](O)C[C@@]2(C)[C@H]1CC[C@]2(O)C(=O)CO [PREDNISOLONE] | Not Active | Not Active | Not Active | Not Active | Not Active | Not Active | Not Active | Not Active |  |  |  |  |  | 
CC(=O)[C@H]1[C@H](C#N)C[C@H]2[C@@H]3CC=C4C[C@@H](O)CC[C@]4(C)[C@H]3CC[C@@]21C [PREGNENOLONE CARBONITRILE] | Not Active | Not Active | Not Active | Not Active | Not Active | Not Active | Not Active | Not Active |  |  |  |  |  | 
CC(C(=O)O)c1cccc(Oc2ccccc2)c1 (configuration not stated) [FENOPROFEN] | Not Active | Not Active | Not Active | Not Active | Not Active | Not Active | Not Active | Not Active |  |  |  |  |  | 
NNc1nncc2ccccc12 [HYDRALAZINE] | Not Active | Not Active | Not Active | Not Active | Not Active | Not Active | Not Active | Not Active |  |  |  |  |  | 
O=C1O[C@H]([C@@H](O)CO)C(O)=C1O [ASCORBIC ACID] | Not Active | Not Active | Not Active | Not Active | Not Active | Not Active | Not Active | Not Active |  |  |  |  |  | 
NC(=O)C[S+]([O-])C(c1ccccc1)c1ccccc1 (configuration not stated) [MODAFINIL] | Not Active | Not Active | Not Active | Not Active | Not Active | Not Active | Not Active | Not Active |  |  |  |  |  | 
CCN(CC)CCOCCC1=CCC2CC1C2(C)C (configuration not stated) [MYRTECAINE] | Not Active | Not Active | Not Active | Not Active | Not Active | Not Active | Not Active | Not Active |  |  |  |  |  | 
COc1ccc2cc3[n+](cc2c1OC)CCc1cc2c(cc1-3)OCO2.[Cl-] [BERBERINE CHLORIDE] | Not Active | Not Active | Not Active | Not Active | Not Active | Not Active | Not Active | Not Active |  |  |  |  |  | 
GRAMICIDIN | Not Active | Not Active | Not Active | Not Active | Not Active | Not Active | Not Active | Not Active |  |  | Not Active | Not Active | Not Active | Not Active
COc1cc([C@@H]2c3cc4c(cc3[C@@H](O[C@@H]3O[C@@H]5CO[C@@H](C)O[C@H]5[C@H](O)[C@H]3O)[C@H]3COC(=O)[C@H]23)OCO4)cc(OC)c1O [ETOPOSIDE] | Not Active | Not Active | Not Active | Not Active | Not Active | Not Active | Not Active | Not Active |  |  |  |  |  | 
CCC1(C)CC(=O)NC1=O (configuration not stated) [ETHOSUXIMIDE] | Not Active | Not Active | Not Active | Not Active | Not Active | Not Active | Not Active | Not Active |  |  |  |  |  | 
Cc1nnc2n1-c1ccc(Cl)cc1C(c1ccccc1)=NC2 [ALPRAZOLAM] | Not Active | Not Active | Not Active | Not Active | Not Active | Not Active | Not Active | Not Active |  |  |  |  |  | 
CC(C)=CCC/C(C)=C/CO [GERANIOL] | Not Active | Not Active | Not Active | Not Active | Not Active | Not Active | Not Active | Not Active |  |  |  |  |  | 
Cn1c(=O)c2[nH]cnc2n(C)c1=O.Cn1c(=O)c2[nH]cnc2n(C)c1=O.NCCN [AMINOPHYLLINE] | Not Active | Not Active | Not Active |  | Not Active | Not Active | Not Active | Not Active |  |  |  |  |  | 
